According to US8455009B2, “Amniotic membrane preparations and purified compositions and anti-inflammation methods” (TissueTech, Inc., priority 2005, dated 2013):

How the values were obtained:
Raw264.7 cells = experiment: NO assay (nitrite, Griess reagent) in Raw264.7 macrophages; type: cell-based, mouse; details: 500 μM inhibitor; cells cultured on AM
Method: Raw 264.7 cells, a mouse macrophage cell line, were obtained from the ATCC and cultured in phenol red-free Dulbecco's modified Eagle's medium (DMEM) supplemented with 10% fetal bovine serum, 50 μg/ml gentamicin, and 1.25 μg/ml fungizone in 100 mm culture dishes. When cells became 70%-80% confluent, the medium was removed and cells were treated with trypsin/EDTA for 10 min at 25° C. After digestion, cells were still firmly attached to the dish, so the trypsin/EDTA solution was removed. […] After centrifugation at 500×g for 5 min, the medium was removed, the cell pellet resuspended in the DMEM/ITS medium, cells counted, and cell density adjusted to 0.5×10^6/ml. […]
At the end of the cultivation, the cell culture medium in each well was harvested individually and centrifuged at 12,000×g for 10 min at 4° C. […] NO production was assessed by measuring the nitrite, its stable degradation product, using Griess reagent according to the manufacturer's protocol. Briefly, 50 μl of the cleared medium was mixed with 100 μl of the Griess reagents (ICN Biomedicals, Aurora, Ohio), after 15 min the absorbance was measured at 550 nm using Fusion™ universal microplate analyzer (Packard, Meriden, Conn.). The amount of nitrite was calculated from a standard curve of sodium nitrite (NaNO2; Sigma, St. Louis, Mo.).

Raw 264.7 cells = experiment: Hoechst-33342 nuclear staining of macrophages; type: cell-based, mouse; details: 500 μM inhibitor; cells on AM with IFN γ
Excerpt: To determine if the aforementioned cell death was mediated by apoptosis, cells in parallel experiments were subjected to Hoechst-33342 staining. Fragmented nuclei with strong Hoechst staining were found more in AM/IFN γ as compared to AM without IFN γ and to their plastic controls. Percentages of Hoechst-33342-positive apoptotic nuclei were 12.4±2.7% (PL), 16.5±3.1% (PL/IFN γ), 14.7±1.1% (AM), and 63.8±7.9% (AM/IFN γ). There was no statistical difference between PL and PL/IFN γ and between PL and AM (all p>0.05), while there was a statistical difference between AM and AM/IFN γ and between PL/IFNγ and AM/IFNγ (all p<0.001). […] In contrast, there was no such giant cell in AM/IFNγ cultures.

TGF-β1 promoter = TGF-β1 promoter suppression (adenoviral promoter-luciferase) in human corneal fibroblasts; type: cell-based
Method: When human corneal fibroblasts cultured on 100 mm plastic dish in DMEM/10% FBS reached 80% confluency (˜1.0×10^6 cells), cells were washed twice with DMEM/10% FBS. Adenoviruses-TGF-β1 promoter-luciferase (MOI=37.5) and Adeno-CMV-beta-gal (MOI=30) were added to the culture plates with 10 ml of the fresh DMEM/10% FBS and cells were incubated at 37° C. for 4 hours, and trypsinized for 5 minutes using 4 ml prewarmed trypsin/EDTA. After trypsin/EDTA activity was neutralized with 8 ml of DMEM/10% FBS, cells were collected into a 15 ml tube and centrifuged at 1,500 rpm (˜600×g) for 5 min. After decanting the medium, cells were resuspended in 15 ml DMEM/10% FBS, and cell viability was measured by trypan blue stain. Viable 3×10^4 cells were seeded on a plastic 24 well or on the stromal surface of AM inserts. A total of 4 wells or inserts were prepared. Cells were then incubated at 37° C. in a CO2 incubator for 48 hours.
After carefully removing the growth medium from each well, cells were rinsed with 0.5 ml PBS at lease twice, taking care not to dislodge attached cells. After removing as much as PBS in the well, 100 μl 1× lysis buffer was added to cover the cells, and cells were mechanically scraped and transferred to a microcentrifuge tube placed on ice. Cell lysates were collected by vortexing for 10-15 sec and centrifuging at 12,000×g for 15 sec at room temperature. […]

[1] = test system: human corneal fibroblasts; experiment: Cell morphology and density of human corneal fibroblasts after treatment; type: cell-based; details: HA alone; low concentrations of AME or jelly extracts
Excerpt: The above changes were even more dramatic in lyophilized AME or L/AME than their non-lyophilized counterparts in AME or Jelly extracts, respectively (FIG. 6).

| Molecule | IFN γ induced nitrite level with NO synthase inhibitor (Raw264.7 cells) | extent of macrophage apoptosis with NO synthase inhibitor (Raw 264.7 cells) | suppressive activity on TGF-β1 promoter, HA alone (TGF-β1 promoter; 100 μg/ml) | suppression of TGF-β1 promoter activation (TGF-β1 promoter; compared to the PBS control, normalized with beta-galatosidase activity, FIG. 5) | change in cell morphology [1] |
| --- | --- | --- | --- | --- | --- |
| CC(=N)NCCCC[C@H](N)C(=O)O.Cl [L-NIL, L-N-6-(1-iminoethyl) lysine hydrochloride] | 14.0 ± 9.8 µM | not significantly attenuated | – | – | – |
| hyaluronic acid [HA] | – | – | mild suppressive activity | showed suppression | no change in cell morphology |
| CC(=O)O.CNC(=N)NCCC[C@H](N)C(=O)O [L-NMMA, NG-monomethyl-L-arginine acetate] | 19.8 ± 4.9 µM | not significantly attenuated | – | – | – |
